Measurements from patent US20230165874A1, “ANTICOAGULANT COMPOUNDS AND METHODS AND DEVICES FOR THEIR PULMONARY USE” (priority 2020, published 2023).
Values after ≈ are worked out from the molar mass of the structure shown. Where a name gives a salt, the structure may show the parent alone.

Legend:
in vivo [1] = test: in vivo; design: species or system Sprague-Dawley rats; conditions: male, Sprague-Dawley, rat; for Tmax: inhaled or intranasal
Protocol: At their assigned time-point, rats were anesthetized and subjected to exsanguination via an abdominal vessel and gross necropsy. Whole blood (two ˜1.5 ml aliquots, K2EDTA) was collected. The whole blood was stored frozen at −60° C. or lower until shipped overnight with dry ice for further evaluation.
Whole blood (two ˜100 μL aliquots, K2EDTA) was collected from the catheter of conscious rats for systemic pharmacokinetics (PK) at the time-points. Whole blood samples were stored at −60° C. or lower until shipped overnight on dry ice for further evaluation.

[2] = test system: Calcium-reconstituted sheep blood; test: Activated clotting time (ACT), Hemochron Response; type: biochemical; conditions: individual drug at 0.6 ng/mg
Protocol: The activated clotting time (ACT) evaluation of anticoagulants was performed in Calcium-reconstituted sheep blood and recorded employing the Hemochron® Response device. […] A target amount of drug solution was then added into the test tube. […] The tube was gently shaken before being inserted into the Hemochron Response detector. The ACT read out was recorded and reported. The ACT of the control blood in the absence of any drug as first determined to establish a baseline. Then ACT was determined in the presence of different concentrations of the drug as a single component. Selected drug combinations, were then tested to evaluate for potential synergy in action between the two drugs.

[3] = Solubility in water / aqueous buffer / Captisol
[4] = design: species or system Sprague-Dawley rats; conditions: male, Sprague-Dawley, rat, in vivo
Protocol: The lungs were removed and divided into left and right lung. Each half of the lung was weighed and placed in separate vials (for Pharmacokinetics analysis), snap frozen in liquid nitrogen and stored frozen at −60° C. or lower until shipped overnight on dry ice for further evaluation.
Each half of the lung was weighed and placed in separate vials (for Pharmacokinetics analysis), snap frozen in liquid nitrogen and stored frozen at −60° C. or lower until shipped overnight on dry ice to the sponsor for further evaluation.

porcine coronary artery [5] = test: Histopathology scores (fibrin, injury, inflammation) of stented porcine coronary arteries; conditions: for inhibiting fibrin formation compared to bare metal control stents: at 7 days, released from stents
[6] = Whole blood PK of drug eluting stents; conditions: for concentration at 180 min: 180 min. (3 hr); for concentration at 60 min: 60 min. (1 hr); for concentration at 120 min: 120 min. (2 hr)
[7] = Coated balloon tissue drug concentration in vivo (LCMS); design: species or system porcine; conditions: pig, 300 μg
Source text: The balloon (e.g., the balloon of a balloon-catheter of a stent-delivery system) was advanced to a site to be treated (e.g., an occluded or weakened section of a blood vessel to be opened up or supported by a stent) in the body of a subject and inflated to a desired inflation diameter. Before, during, and/or after inflation of the balloon, the balloon released the therapeutic composition to, into, or at the treatment site, or to, into, or at an area adjacent thereto, by any suitable mechanism (e.g., concentration gradient, diffusion, pressure, or mechanical force, or a combination thereof). […] The tissue concentration is shown in ng/mg tissue. The coated balloons were evaluated for drug delivery efficiency in an animal study. Drug transfer of the coated balloons into arterial segments were evaluated using harvested pig arteries. The arterial wall was separated after animal study. The arterial walls were then stored in an individual labeled vial. All samples were kept on dry ice until stored in the −80° C. freezer. All samples were then frozen to […] prior to being analyzed.

porcine coronary artery [8] = test: Quantitative coronary angiography (late lumen loss, diameter stenosis) after stent implantation; conditions: at 7 days, released from stents
in vivo [9] = conditions: pig, whole blood
[10] = pig, whole blood, other: drug eluting stent implanted in coronary artery, Whole blood concentration, SS16 stents, 1 H group
[11] = pig, whole blood, other: drug eluting stents implanted in coronary arteries, Whole blood concentration, SS16 stents, 1 D group
[12] = pig, whole blood, other: drug eluting stents implanted in coronary arteries, Whole blood concentration, SS17 stents, 1 D group
[13] = pig, whole blood, other: drug eluting stents implanted in coronary arteries, Whole blood concentration, SS17 stents, 1 H group

COc1ccc(-n2nc(C(N)=O)c3c2C(=O)N(c2ccc(N4CCCCC4=O)cc2)CC3)cc1 [Apixaban]
Tmax (in vivo [1]): 5 to 10 min | ACT [2]: 522 | solubility ([3]; aqueous buffer, solubility in aqueous buffers, drug alone): ~28 µg/mL (≈ 60.9 µM) | solubility ([3]; water, solubility in water): ~28 µg/mL (≈ 60.9 µM) | time the drug content in lung tissue lasted [4]: up to 3.5 hours | time the drug content in lungs tissue lasted [4]: up to 1 hours

CC1CNc2c(cccc2S(=O)(=O)N[C@@H](CCCNC(=N)N)C(=O)N2CC[C@@H](C)C[C@@H]2C(=O)O)C1 (some centres unmarked) [Argatroban]
Tmax (in vivo [1]): ~60 min | ACT [2]: 301 | solubility (physchem; aqueous buffer, solubility in aqueous buffers): ~3000 µg/mL (≈ 5900 µM) | solubility (physchem; water, solubility in water): ~3000 µg/mL (≈ 5900 µM) | time the drug content in lung tissue lasted [4]: more than 6 hours | time the drug content in lungs tissue lasted [4]: more than 5 hours | inhibiting fibrin formation compared to bare metal control stents (porcine coronary artery [5]): not more effective

CN1CCCC(n2nc(Cc3ccc(Cl)cc3)c3ccccc3c2=O)CC1 (centres unmarked) [Azelastine, Azelastine hydrochloride]
time the systemic drug in whole blood lasted (in vivo [1]): up to 2 hours | time the drug content in lungs tissue lasted [4]: more than 5 hours

CCN(CCO)CCCC(C)Nc1ccnc2cc(Cl)ccc12 (centres unmarked) [Hydroxychloroquine, Hydroxychloroquine sulfate]
time the systemic drug in whole blood lasted (in vivo [1]): more than 5 hours | time the drug content in lungs tissue lasted [4]: more than 5 hours

O=C(NC[C@H]1CN(c2ccc(N3CCOCC3=O)cc2)C(=O)O1)c1ccc(Cl)s1 [Rivaroxaban]
Whole blood concentration ([6]; SS16 stents, 1 D group, 24 hr (Day 1)): BQL | Whole blood concentration ([6]; SS16 stents, 1 D group, Pre-implant): BQL | Whole blood concentration ([6]; SS16 stents, 1 H group, Pre-implant): BQL | Whole blood concentration ([6]; SS16 stents, 7 D group, Day 7): BQL | Whole blood concentration ([6]; SS16 stents, 7 D group, Pre-implant): BQL | Whole blood concentration ([6]; SS16 stents, 28 D group, Day 28): BQL | Whole blood concentration ([6]; SS16 stents, 28 D group, Pre-implant): BQL | Whole blood concentration ([6]; SS17 stents, 1 D group, Pre-implant): BQL | Whole blood concentration ([6]; SS17 stents, 1 H group, Pre-implant): BQL | Whole blood concentration ([6]; SS17 stents, 7 D group, Day 7): BQL | Whole blood concentration ([6]; SS17 stents, 7 D group, Pre-implant): BQL | Whole blood concentration ([6]; SS17 stents, 28 D group, Day 28): BQL | Whole blood concentration ([6]; SS17 stents, 28 D group, Pre-implant): BQL | systemic blood concentration versus systemic therapeutic concentrations (Cmax, Cmean, Ctrough) ([6]; drug eluting stents SS15, SS16, SS17): below | concentration at 30 min ([6]; pig, whole blood, other: drug eluting stent implanted in coronary artery, Whole blood concentration, SS16 stents, 1 D group): 3.76 ng/mL | concentration at 30 min [6, 10]: 3.34 ng/mL | concentration at 45 min [6, 10]: 3.68 ng/mL | concentration at 180 min ([6]; pig, whole blood, other: drug eluting stent implanted in coronary artery, Whole blood concentration, SS17 stents, 1 D group): 8.39 ng/mL | concentration at 4 h ([6]; pig, whole blood, other: drug eluting stent implanted in coronary artery, Whole blood concentration, SS17 stents, 1 D group, 4 hr): 3.74 ng/mL | concentration at 5 h ([6]; pig, whole blood, other: drug eluting stent implanted in coronary artery, Whole blood concentration, SS17 stents, 1 D group, 5 hr): 3.9 ng/mL | concentration at 6 h ([6]; pig, whole blood, other: drug eluting stent implanted in coronary artery, Whole blood concentration, SS17 stents, 1 D group, 6 hr): 3.1 ng/mL | concentration at 24 h ([6]; pig, whole blood, other: drug eluting stent implanted in coronary artery, Whole blood concentration, SS17 stents, 1 D group, 24 hr (Day 1)): 0.16 ng/mL | concentration at 45 min [6, 11]: 3.47 ng/mL | concentration at 60 min [6, 11]: 2.61 ng/mL | concentration at 90 min [6, 11]: 2.43 ng/mL | concentration at 120 min [6, 11]: 2.3 ng/mL | concentration at 180 min [6, 11]: 1.95 ng/mL | concentration at 4 hr ([6]; pig, whole blood, other: drug eluting stents implanted in coronary arteries, Whole blood concentration, SS16 stents, 1 D group, 4 hr): 1.23 ng/mL | concentration at 5 hr ([6]; pig, whole blood, other: drug eluting stents implanted in coronary arteries, Whole blood concentration, SS16 stents, 1 D group, 5 hr): 1.11 ng/mL | concentration at 6 hr ([6]; pig, whole blood, other: drug eluting stents implanted in coronary arteries, Whole blood concentration, SS16 stents, 1 D group, 6 hr): 1.03 ng/mL | concentration at 60 min ([6]; pig, whole blood, other: drug eluting stents implanted in coronary arteries, Whole blood concentration, SS16 stents, 1 H group): 4.08 ng/mL | concentration at 15 min [6, 12]: 24 ng/mL | concentration at 30 min [6, 12]: 20.1 ng/mL | concentration at 45 min [6, 12]: 19.5 ng/mL | concentration at 60 min [6, 12]: 18.5 ng/mL | concentration at 90 min [6, 12]: 15 ng/mL | concentration at 120 min [6, 12]: 11.6 ng/mL | concentration at 150 min ([6]; pig, whole blood, other: drug eluting stents implanted in coronary arteries, Whole blood concentration, SS17 stents, 1 D group, 150 min.): 11.3 ng/mL | concentration at 15 min [6, 13]: 10.8 ng/mL | concentration at 30 min [6, 13]: 8.44 ng/mL | concentration at 45 min [6, 13]: 7.82 ng/mL | concentration at 60 min [6, 13]: 7.54 ng/mL | concentration at 15 min ([7]; coronary artery wall): 1230 ± 370 ng/g | concentration at 15 min ([7]; superficial femoral artery wall): 40600 ± 64700 ng/g | inhibiting smooth muscle cell proliferation (LLL) compared to bare metal control stents (porcine coronary artery [8]): not more effective | inhibiting fibrin formation compared to control (porcine coronary artery [5]; at 7 days and/or at 28 days, faster release formulation): more effective | inhibiting fibrin formation compared to bare metal control stents (porcine coronary artery [5]): more effective | concentration at 15 min (in vivo [9]; other: drug eluting stent implanted in coronary artery): 3.32 ng/mL | concentration at 150 min (in vivo [9]; other: drug eluting stents implanted in coronary arteries): 2.08 ng/mL

Dalteparin
inhibiting smooth muscle cell proliferation (LLL) compared to bare metal control stents (porcine coronary artery [8]): not more effective | inhibiting fibrin formation compared to bare metal control stents (porcine coronary artery [5]): not more effective
